Data published in ChEMBL document CHEMBL1909046, “DrugMatrix in vitro pharmacology data”.

How the values were obtained:
[1] = biological target: T1, Muscarinic acetylcholine receptor M4 (Homo sapiens, UniProt P08173); type: cell membranes, CHO-K1, Membrane; details: cho-k1
T1 sequence (P08173 whole entry): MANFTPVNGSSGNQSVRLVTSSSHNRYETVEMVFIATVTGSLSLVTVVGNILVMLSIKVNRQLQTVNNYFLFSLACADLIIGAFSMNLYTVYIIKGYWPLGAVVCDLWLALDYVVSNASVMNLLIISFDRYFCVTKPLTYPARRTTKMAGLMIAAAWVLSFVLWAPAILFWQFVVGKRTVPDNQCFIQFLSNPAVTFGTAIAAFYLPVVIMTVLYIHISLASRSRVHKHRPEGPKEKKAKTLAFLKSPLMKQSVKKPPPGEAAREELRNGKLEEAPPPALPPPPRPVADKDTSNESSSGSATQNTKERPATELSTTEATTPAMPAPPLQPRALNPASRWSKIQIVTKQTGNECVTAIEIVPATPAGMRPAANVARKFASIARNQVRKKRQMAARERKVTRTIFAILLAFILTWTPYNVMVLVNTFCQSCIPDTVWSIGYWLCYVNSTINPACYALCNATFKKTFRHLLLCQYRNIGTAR

[2] = biological target: Vascular endothelial growth factor receptor 1 (Homo sapiens, UniProt P17948); type: cell-based; details: huvec
Chain of Vascular endothelial growth factor receptor 1 (P17948 whole entry): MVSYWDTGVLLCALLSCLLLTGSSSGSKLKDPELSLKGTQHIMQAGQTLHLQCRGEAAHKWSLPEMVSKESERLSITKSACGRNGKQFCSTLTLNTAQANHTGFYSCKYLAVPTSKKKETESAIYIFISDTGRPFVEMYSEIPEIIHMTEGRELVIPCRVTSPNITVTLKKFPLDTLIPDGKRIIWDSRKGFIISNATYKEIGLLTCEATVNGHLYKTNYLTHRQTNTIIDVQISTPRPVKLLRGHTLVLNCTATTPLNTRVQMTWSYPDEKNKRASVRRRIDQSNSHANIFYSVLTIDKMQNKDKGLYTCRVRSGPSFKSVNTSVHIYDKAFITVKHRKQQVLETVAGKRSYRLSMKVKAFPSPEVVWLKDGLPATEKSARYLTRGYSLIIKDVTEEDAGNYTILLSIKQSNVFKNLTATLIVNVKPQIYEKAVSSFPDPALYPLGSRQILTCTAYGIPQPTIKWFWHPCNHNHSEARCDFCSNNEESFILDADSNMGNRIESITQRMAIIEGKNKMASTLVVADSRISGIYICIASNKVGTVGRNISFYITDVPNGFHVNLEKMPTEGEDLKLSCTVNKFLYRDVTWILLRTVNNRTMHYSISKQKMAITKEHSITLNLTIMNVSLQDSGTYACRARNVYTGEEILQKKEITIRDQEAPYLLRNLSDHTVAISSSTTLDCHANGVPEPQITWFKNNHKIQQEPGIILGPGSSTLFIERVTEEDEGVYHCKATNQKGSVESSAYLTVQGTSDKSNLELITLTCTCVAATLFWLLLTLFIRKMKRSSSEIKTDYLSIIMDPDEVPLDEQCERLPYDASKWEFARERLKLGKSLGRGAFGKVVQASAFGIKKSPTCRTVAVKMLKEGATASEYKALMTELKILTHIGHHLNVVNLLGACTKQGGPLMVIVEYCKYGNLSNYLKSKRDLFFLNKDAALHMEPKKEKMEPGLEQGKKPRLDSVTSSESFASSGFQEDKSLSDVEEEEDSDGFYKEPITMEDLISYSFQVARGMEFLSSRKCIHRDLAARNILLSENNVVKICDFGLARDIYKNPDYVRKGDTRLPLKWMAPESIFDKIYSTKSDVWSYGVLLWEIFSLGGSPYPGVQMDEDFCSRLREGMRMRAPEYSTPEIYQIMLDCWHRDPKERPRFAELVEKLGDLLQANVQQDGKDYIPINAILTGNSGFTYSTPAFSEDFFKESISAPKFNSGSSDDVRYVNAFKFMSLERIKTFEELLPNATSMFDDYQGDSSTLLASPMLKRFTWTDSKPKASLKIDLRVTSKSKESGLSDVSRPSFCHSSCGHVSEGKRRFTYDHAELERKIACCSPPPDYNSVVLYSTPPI

[3] = biological target: T2, Receptor-type tyrosine-protein phosphatase C (Homo sapiens, UniProt P08575); parameters: species or system Escherichia coli;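 note: inhibition of CD45 enzyme activity measured using DiFMUP as substrate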
T2 sequence (P08575 whole entry): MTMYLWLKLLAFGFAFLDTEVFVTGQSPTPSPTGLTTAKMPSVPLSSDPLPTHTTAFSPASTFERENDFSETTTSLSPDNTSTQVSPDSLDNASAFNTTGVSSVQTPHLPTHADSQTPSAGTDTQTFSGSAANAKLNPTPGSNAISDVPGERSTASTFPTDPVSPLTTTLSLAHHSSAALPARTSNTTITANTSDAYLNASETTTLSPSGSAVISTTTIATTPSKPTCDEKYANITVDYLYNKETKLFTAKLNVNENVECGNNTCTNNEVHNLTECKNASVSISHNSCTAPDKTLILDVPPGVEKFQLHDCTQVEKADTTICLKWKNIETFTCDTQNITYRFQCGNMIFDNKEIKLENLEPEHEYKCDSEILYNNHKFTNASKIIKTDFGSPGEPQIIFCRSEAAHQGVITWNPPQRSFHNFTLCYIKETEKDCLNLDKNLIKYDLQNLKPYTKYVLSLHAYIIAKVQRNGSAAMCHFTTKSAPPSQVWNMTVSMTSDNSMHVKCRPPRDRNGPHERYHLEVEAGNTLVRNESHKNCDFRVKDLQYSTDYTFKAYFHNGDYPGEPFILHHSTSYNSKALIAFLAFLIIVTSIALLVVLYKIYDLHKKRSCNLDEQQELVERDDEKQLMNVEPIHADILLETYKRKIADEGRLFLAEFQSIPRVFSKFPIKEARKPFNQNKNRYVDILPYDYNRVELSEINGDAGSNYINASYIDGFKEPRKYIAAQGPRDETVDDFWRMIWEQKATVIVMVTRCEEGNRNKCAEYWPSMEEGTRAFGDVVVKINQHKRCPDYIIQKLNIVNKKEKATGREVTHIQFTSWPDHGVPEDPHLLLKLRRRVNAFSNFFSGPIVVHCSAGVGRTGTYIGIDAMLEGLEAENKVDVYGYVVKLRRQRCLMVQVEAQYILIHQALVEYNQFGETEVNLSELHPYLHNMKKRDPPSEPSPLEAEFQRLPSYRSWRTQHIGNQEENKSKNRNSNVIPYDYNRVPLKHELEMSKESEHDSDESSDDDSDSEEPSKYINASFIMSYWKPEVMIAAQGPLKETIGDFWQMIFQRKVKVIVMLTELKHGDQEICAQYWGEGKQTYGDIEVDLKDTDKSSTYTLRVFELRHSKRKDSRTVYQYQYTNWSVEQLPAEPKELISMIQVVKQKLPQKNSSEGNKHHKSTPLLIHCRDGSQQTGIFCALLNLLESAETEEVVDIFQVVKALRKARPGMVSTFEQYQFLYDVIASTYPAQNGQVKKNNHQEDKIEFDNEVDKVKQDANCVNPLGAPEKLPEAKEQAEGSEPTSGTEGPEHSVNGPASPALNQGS

Calcitonin receptor = biological target: T3, Calcitonin receptor (Homo sapiens, UniProt P30988); type: cell membranes, Membrane; details: t47d
T3 sequence (P30988 whole entry): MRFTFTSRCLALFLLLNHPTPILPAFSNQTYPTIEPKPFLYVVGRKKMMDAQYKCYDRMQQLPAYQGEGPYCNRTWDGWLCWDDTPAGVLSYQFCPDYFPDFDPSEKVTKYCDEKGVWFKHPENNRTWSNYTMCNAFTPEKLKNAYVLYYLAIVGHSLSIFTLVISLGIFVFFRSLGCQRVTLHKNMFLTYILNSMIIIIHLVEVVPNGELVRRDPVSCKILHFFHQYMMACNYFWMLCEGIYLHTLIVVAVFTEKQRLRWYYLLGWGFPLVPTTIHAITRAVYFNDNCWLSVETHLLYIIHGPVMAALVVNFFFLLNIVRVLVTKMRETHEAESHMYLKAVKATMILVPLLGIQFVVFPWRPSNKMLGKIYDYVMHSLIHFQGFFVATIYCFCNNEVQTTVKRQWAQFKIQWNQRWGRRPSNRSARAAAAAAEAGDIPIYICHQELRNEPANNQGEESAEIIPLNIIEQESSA

Adenosine receptor A1 = biological target: T4, Adenosine receptor A1 (Homo sapiens, UniProt P30542); type: cell membranes, CHO, Membrane; details: cho;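 note: radioligand binding assay at the adenosine A1 receptor, with DPCPX serving as the labelled ligand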
T4 sequence (P30542 whole entry): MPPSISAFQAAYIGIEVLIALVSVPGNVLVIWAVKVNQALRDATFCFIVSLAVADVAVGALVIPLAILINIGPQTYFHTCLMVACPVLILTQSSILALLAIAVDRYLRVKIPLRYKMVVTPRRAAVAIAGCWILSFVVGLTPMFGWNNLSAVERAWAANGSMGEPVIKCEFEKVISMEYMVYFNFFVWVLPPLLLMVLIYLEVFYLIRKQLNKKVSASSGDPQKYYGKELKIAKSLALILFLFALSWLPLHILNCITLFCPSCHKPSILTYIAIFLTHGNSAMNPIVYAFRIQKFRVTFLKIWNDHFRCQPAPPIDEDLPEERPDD
Note: in other assays of this panel Not Active means under 50% inhibition at 10 µM.

CC(C)CN(C[C@@H](O)[C@H](Cc1ccccc1)NC(=O)O[C@H]1CCOC1)S(=O)(=O)c1ccc(N)cc1
Not Active: IC50 [1] | IC50 [2] | IC50 [3] | IC50 (Calcitonin receptor) | IC50 (Adenosine receptor A1)

c1ccc(Nc2ccc(Nc3ccccc3)cc2)cc1
Not Active: IC50 [1] | IC50 [2] | IC50 [3] | IC50 (Calcitonin receptor) | IC50 (Adenosine receptor A1)

COc1cc2c3cc1Oc1cc(ccc1O)C[C@@H]1c4c(cc(OC)c(O)c4Oc4ccc(cc4)C[C@@H]3N(C)CC2)CC[N+]1(C)C.[Cl-]
Not Active: IC50 [1] | IC50 [2] | IC50 [3] | IC50 (Calcitonin receptor) | IC50 (Adenosine receptor A1)

NC(=O)N1c2ccccc2CCc2ccccc21
Not Active: IC50 [1] | IC50 [2] | IC50 [3] | IC50 (Calcitonin receptor) | IC50 (Adenosine receptor A1)

O=C1CC[C@@H](N2C(=O)c3ccccc3C2=O)C(=O)N1
Not Active: IC50 [1] | IC50 [2] | IC50 [3] | IC50 (Calcitonin receptor) | IC50 (Adenosine receptor A1)

Cc1onc(O)c1CC(N)C(=O)O (racemic) [(R,S)-AMPA]
Not Active: IC50 [1] | IC50 [2] | IC50 [3] | IC50 (Calcitonin receptor) | IC50 (Adenosine receptor A1)

Cc1ccc2cc3c(ccc4ccccc43)c3c2c1CC3 [3-METHYLCHOLANTHRENE]
Not Active: IC50 [1] | IC50 [2] | IC50 [3] | IC50 (Calcitonin receptor) | IC50 (Adenosine receptor A1)

CC[C@@]1(O)C[C@H](O[C@H]2C[C@H](N(C)C)[C@H](O[C@H]3C[C@H](O)[C@H](O[C@H]4CCC(=O)[C@H](C)O4)[C@H](C)O3)[C@H](C)O2)c2c(cc3c(c2O)C(=O)c2c(O)cccc2C3=O)[C@H]1C(=O)OC [ACLARUBICIN]
Not Active: IC50 [1] | IC50 [2] | IC50 [3] | IC50 (Calcitonin receptor) | IC50 (Adenosine receptor A1)

Nc1nc2c(ncn2COCCO)c(=O)[nH]1 [ACYCLOVIR]
Not Active: IC50 [1] | IC50 [2] | IC50 [3] | IC50 (Calcitonin receptor) | IC50 (Adenosine receptor A1)

Cc1c(C)c2c(c(C)c1O)CC[C@@](C)(CCC[C@H](C)CCC[C@H](C)CCCC(C)C)O2 [ALPHA-TOCOPHEROL]
Not Active: IC50 [1] | IC50 [2] | IC50 [3] | IC50 (Calcitonin receptor) | IC50 (Adenosine receptor A1)

CN(C)c1nc(N(C)C)nc(N(C)C)n1 [ALTRETAMINE]
Not Active: IC50 [1] | IC50 [2] | IC50 [3] | IC50 (Calcitonin receptor) | IC50 (Adenosine receptor A1)

Nc1c(Br)cc(Br)cc1CN[C@H]1CC[C@H](O)CC1 [AMBROXOL]
Not Active: IC50 [1] | IC50 [2] | IC50 [3] | IC50 (Calcitonin receptor) | IC50 (Adenosine receptor A1)

NCCCCCC(=O)O [AMINOCAPROIC ACID]
Not Active: IC50 [1] | IC50 [2] | IC50 [3] | IC50 (Calcitonin receptor) | IC50 (Adenosine receptor A1)

CCC1(c2ccc(N)cc2)CCC(=O)NC1=O (centres undefined) [AMINOGLUTETHIMIDE]
Not Active: IC50 [1] | IC50 [2] | IC50 [3] | IC50 (Calcitonin receptor) | IC50 (Adenosine receptor A1)

Cc1ccc(/N=C/N(C)/C=N/c2ccc(C)cc2C)c(C)c1 [AMITRAZ]
Not Active: IC50 [1] | IC50 [2] | IC50 [3] | IC50 (Calcitonin receptor) | IC50 (Adenosine receptor A1)

CCOC(=O)C1=C(COCCN)NC(C)=C(C(=O)OC)C1c1ccccc1Cl (centres undefined) [AMLODIPINE]
Not Active: IC50 [1] | IC50 [2] | IC50 [3] | IC50 (Calcitonin receptor) | IC50 (Adenosine receptor A1)

COc1ccc(C[C@H]2NC[C@H](O)[C@H]2OC(C)=O)cc1 [ANISOMYCIN]
Not Active: IC50 [1] | Ki [1] | IC50 [2] | Ki [2] | IC50 [3] | Ki [3] | IC50 (Calcitonin receptor) | Ki (Calcitonin receptor) | IC50 (Adenosine receptor A1) | Ki (Adenosine receptor A1)

Nc1ncn([C@@H]2O[C@H](CO)[C@@H](O)[C@H]2O)c(=O)n1 [AZACITIDINE]
Not Active: IC50 [1] | IC50 [2] | IC50 [3] | IC50 (Calcitonin receptor) | IC50 (Adenosine receptor A1)

CN(C)C(=O)Oc1cc(OC(=O)N(C)C)cc(C(O)CNC(C)(C)C)c1 (centres undefined) [BAMBUTEROL]
Not Active: IC50 [1] | IC50 [2] | IC50 [3] | IC50 (Calcitonin receptor) | IC50 (Adenosine receptor A1)

c1ccc2c(c1)c1cccc3ccc4cccc2c4c31 [BENZO[E]PYRENE]
Not Active: IC50 [1] | IC50 [2] | IC50 [3] | IC50 (Calcitonin receptor) | IC50 (Adenosine receptor A1)

CNCCc1ccccn1 [BETAHISTINE]
Not Active: IC50 [1] | IC50 [2] | IC50 [3] | IC50 (Calcitonin receptor) | IC50 (Adenosine receptor A1)

CC(C)C(Br)C(=O)NC(N)=O (centres undefined) [BROMISOVALUM]
Not Active: IC50 [1] | IC50 [2] | IC50 [3] | IC50 (Calcitonin receptor) | IC50 (Adenosine receptor A1)

CCCC1O[C@@H]2C[C@H]3[C@@H]4CCC5=CC(=O)C=C[C@]5(C)[C@H]4[C@@H](O)C[C@]3(C)[C@]2(C(=O)CO)O1 (some centres undefined) [BUDESONIDE]
Not Active: IC50 [1] | IC50 [2] | IC50 [3] | IC50 (Calcitonin receptor) | IC50 (Adenosine receptor A1)

CC(NC(C)(C)C)C(=O)c1cccc(Cl)c1 (centres undefined) [BUPROPION]
Not Active: IC50 [1] | IC50 [2] | IC50 [3] | IC50 (Calcitonin receptor) | IC50 (Adenosine receptor A1)

CN(Cc1ccc(C(C)(C)C)cc1)Cc1cccc2ccccc12 [BUTENAFINE]
Not Active: IC50 [1] | IC50 [2] | IC50 [3] | IC50 (Calcitonin receptor) | IC50 (Adenosine receptor A1)

C[C@H](CS)C(=O)N1CCC[C@H]1C(=O)O [CAPTOPRIL]
Not Active: IC50 [1] | IC50 [2] | IC50 [3] | IC50 (Calcitonin receptor) | IC50 (Adenosine receptor A1)

Cc1ccc(-c2cc(C(F)(F)F)nn2-c2ccc(S(N)(=O)=O)cc2)cc1 [CELECOXIB]
Not Active: IC50 [1] | IC50 [2] | IC50 [3] | IC50 (Calcitonin receptor) | IC50 (Adenosine receptor A1)

CN(C)CCCN1c2ccccc2Sc2ccc(Cl)cc21 [CHLORPROMAZINE]
Not Active: IC50 [2] | IC50 [3] | IC50 (Calcitonin receptor) | IC50 (Adenosine receptor A1)
